For one data set, the target named is Protein Kinase C. Kind of data set: Protein kinase C inhibitory activity (method of Kikkawa et al.). The class given is biochemical, rat. As to conditions: for IC50 Protein Kinase C: crude enzyme partially purified from rat brain, [γ-32P]ATP, Histone Type IIS, 30° C., 3 minutes; for selective inhibitory activity on protein kinase C, as compared with Phleichrome: statement on Table 1 (protein kinase C vs protein kinase A). The procedure:
Protein kinase C inhibitory activity was measured by the method of Kikkawa, et al. [Journal of Biological Chemistry, 257, 13341 (1982)].
That is, 10 μl of a test solution containing UCN-1028A, UCN-1028C or Phleichrome was added to 250 μl of a solution containing 2.5 μmoles of magnesium acetate, 50 μg of Histone Type IIS (manufactured by Sigma Co., Ltd.), 20 μg of phosphatidyl serine, 0.8 μg of diolein, 25 nmoles of CaCl2, 5 μg of crude enzyme (partially purified from rat brain according to the method of Kikkawa, et al.) and 5 μmoles of Tris-hydrochloride buffer (H 7.5), followed by incubation at 30° C. for 3 minutes. Then, phosphorylation was initiated by addition of 1.25 nmoles of [γ-^32 P]ATP (5 to 10×10^3 cpm/nmole), followed by incubation at 30° C. for 3 minutes. The reaction was stopped by adding 25% trichloroacetic acid (TCA), and the reaction solution was filtered through a cellulose acetate membrane (pore size of 0.45 μm) (manufactured by Toyo Filter Paper Co., Ltd.). After the membrane was washed four times with 5% TCA, radioactivity remaining on the membrane was measured. As a control, the same procedure as above was repeated without addition of the test solution and radioactivity was likewise measured. A concentration of the test solution showing 50% inhibition as compared with the control was expressed as IC50.

A further data set has as its target T1, Protein Kinase A (Bos taurus, UniProt P00517).
T1 construct: partially purified from calf heart; from tissue; host or cells: calf heart (crude enzyme, partially purified by the method of Kuo et al.)
Kind of data set: Protein kinase A inhibitory activity (method of Kuo et al.). The class given is biochemical, calf. The procedure:
Protein kinase A inhibitory activity was measured according to the method of Kuo, et al. [Biochemistry, 64, […].
That is, 10 μl of a test solution was added to 250 μl of a solution containing 5 μmoles of Tris-hydrochloride buffer (pH 6.8), 2.5 μmoles of magnesium acetate, 100 μg of Histone Type IIS (manufactured by Sigma Co., Ltd.), 0.25 nmoles of C-AMP and 200 μg of crude enzyme (partially purified from calf heart according to the method of Kuo, et al.). Subsequent procedures were conducted in a manner similar to the case of measuring protein kinase C inhibitory activity described above to determine IC^50.

The test system of a further data set is MCF 7 cells. Kind of data set: Anti-tumor activity: growth inhibition of MCF 7 cells (Neutral Red). The class given is cell-based. Particulars: Homo sapiens. The procedure: (§1) MCF 7 cells (4.5×10^4 cells/ml) prepared in a medium comprising RPMI 1640 medium (manufactured by Gibco Co., Ltd.), 10% fetal calf serum, 10 μg/ml insulin and 10^-8 M estradiol (hereinafter referred to as medium A) were put into wells of a 96 well microtiter plate in the amount of 0.1 m(per each well. After culturing at 37° C for 20 hours in a carbon dioxide gas incubator, each test solution appropriately diluted with medium A (0.05 ml) was added thereto. Then, culturing was carried out at 37° C. for an hour in the carbon dioxide gas incubator, and the culture supernatant was removed. After the residue was washed once with […] (composition: 8 g/l NaCl, 0.2 g/l KCl, 1.5 g/l Na2 HPO4 and 0.2 g/l KH2 PO4), 0.1 ml of fresh medium A was added thereto, followed by culturing at 37° C. for 72 hours in the carbon dioxide gas incubator. Then, the culture supernatant was removed and 0.1 ml of a medium comprising medium A and 0.02% Neutral Red was added to the residue, followed by culturing at 37° C. for one hour in the carbon dioxide gas incubator, thereby staining the cells. After removal of the culture supernatant, the residue was washed once with physiological saline. Then, the pigment was extracted with 0.001 N hydrochloric acid/30% ethanol and absorbency at 550 nm was measured with a microplate reader. By comparing the absorbency of intact cells with that of the cells treated with a test solution having a known concentration, a concentration of the test solution which inhibited 50% of growth of the cells (IC50) was calculated.

The next data set concerns HelaS3 cells. In words: Anti-tumor activity: growth inhibition of HelaS3 cells (Neutral Red). Particulars: Homo sapiens. The class given is cell-based. The procedure:
as §1
HelaS3 cells (3×10^4 cells/ml) prepared in a medium comprising MEM medium (manufactured by Nissui Pharmaceutical Co., Ltd.) and 2 mM glutamine were put into wells of a 96 well microtiter plate in the amount of 0.1 ml per each well. In a manner similar to the case of MCF 7 cells described above, IC^50 was calculated.

Where [1] appears, read: MCF7, 1 hour exposure, then 72 hours culture at 37° C., Neutral Red, 550 nm, read-out: IC50 MCF 7 cells.
Setting [2] is: HeLa S3, similar to MCF 7 cells, MEM medium, 2 mM glutamine, read-out: IC50 HelaS3 cells.

Experimental findings from patent publication US4992570A, “UCN-1028A and UCN-1028C and process for the production thereof” (Kyowa Hakko Kogyo Co., Ltd., priority 1987, dated 1991) are described below.

Usually IC50 stands for the concentration at which inhibition is half-maximal.

The structures appear in SMILES notation. Values after ≈ are worked out from the molar mass of the structure shown. Read-outs that look alike come from different tables or passages of the source.

With `COc1c(CC(C)O)c2c3c(CC(C)O)c(OC)c(=O)c4c(O)cc(OC)c(c5c(OC)cc(O)c(c1=O)c52)c43` (stereo not shown) [Phleichrome, reference compound], the “IC50 Protein Kinase C” value on Protein Kinase C was found to be 5.5 µg/mL (≈ 9.99 µM). Also, the half-maximal inhibitory concentration (IC50) was 59.9 µM against Protein Kinase A, 0.7 µg/mL (≈ 1.27 µM) in the data set with MCF 7 cells (setting [1]) and 0.61 µg/mL (≈ 1.11 µM) in the data set on HelaS3 cells (setting [2]).

Turning to `COc1c(CC(C)OC(=O)c2ccccc2)c2c3c(CC(C)OC(=O)c4ccccc4)c(OC)c(=O)c4c(O)cc(OC)c(c5c(OC)cc(O)c(c1=O)c52)c43` (stereo not shown) [UCN-1028A], at Protein Kinase C, the “IC50 Protein Kinase C” value turned out to be 0.19 µg/mL (≈ 0.25 µM) and the “selective inhibitory activity on protein kinase C, as compared with Phleichrome” value was “selective inhibitory activity on protein kinase C”. The compound further yielded an IC50 against Protein Kinase A of over 52.7 µM. The IC50 with MCF 7 cells (setting [1]) was found to be 0.21 µg/mL (≈ 0.277 µM). The IC50 with HelaS3 cells (setting [2]) was 0.29 µg/mL (≈ 0.382 µM). In addition, in the data set “Solubility”, the Solubility in acetone result is “soluble”, the “Solubility in alkaline water” value was “soluble”, the Solubility in chloroform entry was “readily soluble” and the “Solubility in ethyl acetate” value is “readily soluble”. Besides, in the data set “Solubility”, the Solubility in methanol result was “soluble” and the Solubility in water entry is reported as “insoluble”. Also, the Solubility in n-hexane entry in “Solubility” (n-hexane) is given as “soluble”.

Take `COc1c(CC(C)OC(=O)Oc2ccc(O)cc2)c2c3c(CC(C)OC(=O)c4ccccc4)c(OC)c(=O)c4c(O)cc(OC)c(c5c(OC)cc(O)c(c1=O)c52)c43` (stereo not shown) [UCN-1028C]: at Protein Kinase C, the “IC50 Protein Kinase C” value turned out to be 0.07 µg/mL (≈ 0.0885 µM) and the “selective inhibitory activity on protein kinase C, as compared with Phleichrome” value is listed as “selective inhibitory activity on protein kinase C”. Besides, the 50% inhibitory concentration (IC50) at Protein Kinase A (crude enzyme partially purified from calf heart, Histone Type IIS, C-AMP, pH 6.8, read-out: IC50 Protein Kinase A) was over 50.6 µM. Besides, the IC50 in the data set on MCF 7 cells (MCF7, read-out: IC50 MCF 7 cells) is 0.18 µg/mL (≈ 0.228 µM). The IC50 in the data set with HelaS3 cells (HeLa S3, read-out: IC50 HelaS3 cells) was determined as 0.19 µg/mL (≈ 0.24 µM). The “Solubility in DMSO” value in “Solubility” (DMSO) is listed as “readily soluble”. For the same compound, in the data set “Solubility”, the Solubility in acetone entry is “soluble”, the “Solubility in alkaline water” value was “soluble”, the Solubility in chloroform entry is on record as “soluble” and the “Solubility in ethyl acetate” value is given as “soluble”. In “Solubility”, the Solubility in methanol entry is “readily soluble” and the Solubility in water result was “insoluble”.
